In PubChem BioAssay AID1259407 (Chemical Carcinogenesis Research Information System (CCRIS), 2018):
Calls of active or inactive are those of the source. No rule for the calls is given here.

System: CCRIS mutagenicity, Ames/micronucleus/aberration tests
Test: CCRIS mutagenicity studies
[1] = Test System: AMES SALMONELLA TYPHIMURIUM, Strain/Indicator: TA98, Metabolic Activation: NONE, Method: PREINCUBATION
[2] = Test System: AMES SALMONELLA TYPHIMURIUM, Strain/Indicator: TA100, Metabolic Activation: NONE, Method: PREINCUBATION
[3] = Test System: AMES SALMONELLA TYPHIMURIUM, Strain/Indicator: TA1535, Metabolic Activation: NONE, Method: PREINCUBATION
[4] = Test System: AMES SALMONELLA TYPHIMURIUM, Strain/Indicator: TA1537, Metabolic Activation: NONE, Method: PREINCUBATION

`Cc1ccc(N)c(S(=O)(=O)O)c1` was tested, and the mutagenic call (Test System: AMES SALMONELLA TYPHIMURIUM, Strain/Indicator: TA98, Metabolic Activation: HAMSTER, LIVER, S-9, AROCLOR 1254, Method: STANDARD PLATE) was “inactive; negative”, the mutagenic call [1] was “inactive; negative” and the mutagenic call (Test System: AMES SALMONELLA TYPHIMURIUM, Strain/Indicator: TA98, Metabolic Activation: NONE, Method: STANDARD PLATE) was “inactive; negative”. The mutagenic call (Test System: AMES SALMONELLA TYPHIMURIUM, Strain/Indicator: TA98, Metabolic Activation: RAT LIVER S-9, PHENOBARBITAL AND BETA-NAPHTHOFLAVONE, Method: PREINCUBATION) was “inactive; negative”, the mutagenic call (Test System: AMES SALMONELLA TYPHIMURIUM, Strain/Indicator: TA98, Metabolic Activation: RAT, LIVER, S-9, AROCLOR 1254, Method: STANDARD PLATE) was “inactive; negative” and the mutagenic call (Test System: AMES SALMONELLA TYPHIMURIUM, Strain/Indicator: TA100, Metabolic Activation: HAMSTER, LIVER, S-9, AROCLOR 1254, Method: STANDARD PLATE) was “inactive; negative”. For the same compound, the mutagenic call [2] was “inactive; negative”, the mutagenic call (Test System: AMES SALMONELLA TYPHIMURIUM, Strain/Indicator: TA100, Metabolic Activation: NONE, Method: STANDARD PLATE) was “inactive; negative” and the mutagenic call (Test System: AMES SALMONELLA TYPHIMURIUM, Strain/Indicator: TA100, Metabolic Activation: RAT LIVER S-9, PHENOBARBITAL AND BETA-NAPHTHOFLAVONE, Method: PREINCUBATION) was “inactive; negative”. For the same compound, the mutagenic call (Test System: AMES SALMONELLA TYPHIMURIUM, Strain/Indicator: TA100, Metabolic Activation: RAT, LIVER, S-9, AROCLOR 1254, Method: STANDARD PLATE) was “inactive; negative”, the mutagenic call (Test System: AMES SALMONELLA TYPHIMURIUM, Strain/Indicator: TA102, Metabolic Activation: NONE, Method: PREINCUBATION) was “inactive; negative” and the mutagenic call (Test System: AMES SALMONELLA TYPHIMURIUM, Strain/Indicator: TA102, Metabolic Activation: RAT LIVER S-9, PHENOBARBITAL AND BETA-NAPHTHOFLAVONE, Method: PREINCUBATION) was “inactive; negative”. For the same compound, the mutagenic call (Test System: AMES SALMONELLA TYPHIMURIUM, Strain/Indicator: TA104, Metabolic Activation: NONE, Method: PREINCUBATION) was “inactive; negative”, the mutagenic call (Test System: AMES SALMONELLA TYPHIMURIUM, Strain/Indicator: TA104, Metabolic Activation: RAT LIVER S-9, PHENOBARBITAL AND BETA-NAPHTHOFLAVONE, Method: PREINCUBATION) was “inactive; negative” and the mutagenic call (Test System: AMES SALMONELLA TYPHIMURIUM, Strain/Indicator: TA1535, Metabolic Activation: HAMSTER, LIVER, S-9, AROCLOR 1254, Method: STANDARD PLATE) was “inactive; negative”. For the same compound, the mutagenic call [3] was “inactive; negative”, the mutagenic call (Test System: AMES SALMONELLA TYPHIMURIUM, Strain/Indicator: TA1535, Metabolic Activation: NONE, Method: STANDARD PLATE) was “inactive; negative” and the mutagenic call (Test System: AMES SALMONELLA TYPHIMURIUM, Strain/Indicator: TA1535, Metabolic Activation: RAT LIVER S-9, PHENOBARBITAL AND BETA-NAPHTHOFLAVONE, Method: PREINCUBATION) was “inactive; negative”. The mutagenic call (Test System: AMES SALMONELLA TYPHIMURIUM, Strain/Indicator: TA1535, Metabolic Activation: RAT, LIVER, S-9, AROCLOR 1254, Method: STANDARD PLATE) was “inactive; negative”, the mutagenic call (Test System: AMES SALMONELLA TYPHIMURIUM, Strain/Indicator: TA1537, Metabolic Activation: HAMSTER, LIVER, S-9, AROCLOR 1254, Method: STANDARD PLATE) was “inactive; negative” and the mutagenic call [4] was “inactive; negative”. The mutagenic call (Test System: AMES SALMONELLA TYPHIMURIUM, Strain/Indicator: TA1537, Metabolic Activation: NONE, Method: STANDARD PLATE) was “inactive; negative”, the mutagenic call (Test System: AMES SALMONELLA TYPHIMURIUM, Strain/Indicator: TA1537, Metabolic Activation: RAT LIVER S-9, PHENOBARBITAL AND BETA-NAPHTHOFLAVONE, Method: PREINCUBATION) was “inactive; negative” and the mutagenic call (Test System: AMES SALMONELLA TYPHIMURIUM, Strain/Indicator: TA1537, Metabolic Activation: RAT, LIVER, S-9, AROCLOR 1254, Method: STANDARD PLATE) was “inactive; negative”. For the same compound, the mutagenic call (Test System: AMES SALMONELLA TYPHIMURIUM, Strain/Indicator: TA1538, Metabolic Activation: HAMSTER, LIVER, S-9, AROCLOR 1254, Method: STANDARD PLATE) was “inactive; negative”, the mutagenic call (Test System: AMES SALMONELLA TYPHIMURIUM, Strain/Indicator: TA1538, Metabolic Activation: NONE, Method: STANDARD PLATE) was “inactive; negative” and the mutagenic call (Test System: AMES SALMONELLA TYPHIMURIUM, Strain/Indicator: TA1538, Metabolic Activation: RAT, LIVER, S-9, AROCLOR 1254, Method: STANDARD PLATE) was “inactive; negative”. For the same compound, the mutagenic call (Test System: E.COLI, Strain/Indicator: WP2UVRA/PKM101, Metabolic Activation: NONE, Method: PREINCUBATION) was “inactive; negative”, the mutagenic call (Test System: E.COLI, Strain/Indicator: WP2UVRA/PKM101, Metabolic Activation: RAT LIVER S-9, PHENOBARBITAL AND BETA-NAPHTHOFLAVONE, Method: PREINCUBATION) was “inactive; negative” and the mutagenic call (Test System: E.COLI, Strain/Indicator: WP2UVRA, Metabolic Activation: NONE, Method: PREINCUBATION) was “inactive; negative”. For the same compound, the mutagenic call (Test System: E.COLI, Strain/Indicator: WP2UVRA, Metabolic Activation: RAT LIVER S-9, PHENOBARBITAL AND BETA-NAPHTHOFLAVONE, Method: PREINCUBATION) was “inactive; negative”, the mutagenic call (Test System: MOUSE LYMPHOMA, Strain/Indicator: L5178Y (TK+/TK-), Metabolic Activation: NONE, Method: SUSPENSION/PLATE) was “inactive; negative. reevaluation of results: negative” and the mutagenic call (Test System: MOUSE LYMPHOMA, Strain/Indicator: L5178Y (TK+/TK-), Metabolic Activation: RAT, LIVER, S-9, AROCLOR 1254, Method: SUSPENSION/PLATE) was “inactive; negative. reevaluation of results: equivocal”. For the same compound, the mutagenic call (Test System: UDS RODENT HEPATOCYTES, Strain/Indicator: THY INCORP (NON-S-PHASE), Metabolic Activation: NONE, Method: AUTORADIOGRAPHY) was “inactive; negative”.
`CN[C@@H]1[C@H](O[C@H]2[C@H](O[C@H]3[C@H](O)[C@@H](O)[C@H](N=C(N)N)[C@@H](O)[C@@H]3N=C(N)N)O[C@@H](C)[C@]2(O)C=O)O[C@@H](CO)[C@H](O)[C@H]1O` was tested, and the mutagenic call (Test System: AMES SALMONELLA TYPHIMURIUM, Strain/Indicator: TA98, Metabolic Activation: HAMSTER, LIVER, S-9, AROCLOR 1254, Method: PREINCUBATION) was “inactive; negative”, the mutagenic call [1] was “inactive; negative” and the mutagenic call (Test System: AMES SALMONELLA TYPHIMURIUM, Strain/Indicator: TA98, Metabolic Activation: RAT, LIVER, S-9, AROCLOR 1254, Method: PREINCUBATION) was “inactive; negative”. For the same compound, the mutagenic call (Test System: AMES SALMONELLA TYPHIMURIUM, Strain/Indicator: TA100, Metabolic Activation: HAMSTER, LIVER, S-9, AROCLOR 1254, Method: PREINCUBATION) was “inactive; negative”, the mutagenic call [2] was “inactive; negative” and the mutagenic call (Test System: AMES SALMONELLA TYPHIMURIUM, Strain/Indicator: TA100, Metabolic Activation: RAT, LIVER, S-9, AROCLOR 1254, Method: PREINCUBATION) was “inactive; negative”. For the same compound, the mutagenic call (Test System: AMES SALMONELLA TYPHIMURIUM, Strain/Indicator: TA102, Metabolic Activation: NONE, Method: STANDARD PLATE) was “active; positive”, the mutagenic call (Test System: AMES SALMONELLA TYPHIMURIUM, Strain/Indicator: TA102, Metabolic Activation: RAT, LIVER, S-9, AROCLOR 1254, Method: STANDARD PLATE) was “active; positive” and the mutagenic call (Test System: AMES SALMONELLA TYPHIMURIUM, Strain/Indicator: TA1535, Metabolic Activation: HAMSTER, LIVER, S-9, AROCLOR 1254, Method: PREINCUBATION) was “inactive; negative”. The mutagenic call [3] was “inactive; negative”, the mutagenic call (Test System: AMES SALMONELLA TYPHIMURIUM, Strain/Indicator: TA1535, Metabolic Activation: RAT, LIVER, S-9, AROCLOR 1254, Method: PREINCUBATION) was “inactive; negative” and the mutagenic call (Test System: AMES SALMONELLA TYPHIMURIUM, Strain/Indicator: TA1537, Metabolic Activation: HAMSTER, LIVER, S-9, AROCLOR 1254, Method: PREINCUBATION) was “inactive; negative”. For the same compound, the mutagenic call [4] was “inactive; negative”, the mutagenic call (Test System: AMES SALMONELLA TYPHIMURIUM, Strain/Indicator: TA1537, Metabolic Activation: RAT, LIVER, S-9, AROCLOR 1254, Method: PREINCUBATION) was “inactive; negative” and the mutagenic call (Test System: AMES SALMONELLA TYPHIMURIUM, Strain/Indicator: TA2638A, Metabolic Activation: NONE, Method: STANDARD PLATE) was “inactive; negative”.
